Results published in the RepoRT retention time repository (doi:10.1016/j.foodchem.2018.09.045).

Test: RP, Thermo Scientific Syncronis C18, 100 × 2.1 mm, 1.7 µm, 0.3 mL/min, estimated dead time 0.73 min; A: water + 0.1% acetic acid; B: acetonitrile + 0.1% acetic acid; gradient (min/%B) 0/5 1/5 16/95
Settings: stereoisomer not certain

| SMILES | LC retention time |
| --- | --- |
| COc1cc(C=CC(=O)O)cc(OC)c1O | 7.02 min |
| O=C(O)c1ccc(O)c(O)c1 | 4.44 min |
| O=C(O)c1ccc(O)cc1 | 5.41 min |
| CC1OC(OCC2OC(Oc3c(-c4ccc(O)c(O)c4)oc4cc(O)cc(O)c4c3=O)C(O)C(O)C2O)C(O)C(O)C1O (stereo unspecified) | 6.44 min |
| COc1cc(C(=O)O)ccc1O | 5.63 min |
| O=c1c(OC2OC(CO)C(O)C(O)C2O)c(-c2ccc(O)c(O)c2)oc2cc(O)cc(O)c12 (stereo unspecified) | 6.71 min |
| O=C(O)Cc1ccc(O)cc1 | 5.62 min |
| COc1cc(C=CC=O)ccc1O | 7.9 min |
| COc1cc(-c2oc3cc(O)cc(O)c3c(=O)c2O)ccc1O | 9.87 min |
| O=c1cc(-c2ccc(O)cc2)oc2cc(O)cc(O)c12 | 9.52 min |
| O=c1cc(-c2ccccc2)oc2cc(O)cc(O)c12 | 11.6 min |
| CC1OC(OC2C(Oc3cc(O)c4c(c3)OC(c3ccc(O)cc3)CC4=O)OC(CO)C(O)C2O)C(O)C(O)C1O (stereo unspecified) | 7.03 min |
| O=C1CC(c2ccc(O)c(O)c2)Oc2cc(O)cc(O)c21 (stereo unspecified) | 8.59 min |
| O=C1CC(c2ccccc2)Oc2cc(O)cc(O)c21 (stereo unspecified) | 11.7 min |
| COc1cc(O)c2c(=O)cc(-c3ccc(O)cc3)oc2c1 | 10.8 min |
| O=C(C=Cc1ccc(O)c(O)c1)OC1CC(O)(C(=O)O)CC(O)C1O (stereo unspecified) | 5.26 min |

| SMILES | LC retention time |
| --- | --- |
| COc1cc(-c2cc(=O)c3c(O)cc(O)cc3o2)ccc1O | 9.94 min |
| O=c1cc(-c2ccc(O)c(O)c2)oc2cc(O)cc(O)c12 | 8.69 min |
| O=C1c2c(O)cc(O)cc2OC(c2ccccc2)C1O (stereo unspecified) | 9.74 min |
| CC1OC(Oc2c(-c3ccc(O)c(O)c3)oc3cc(O)cc(O)c3c2=O)C(O)C(O)C1O (stereo unspecified) | 7.17 min |
| COc1ccc(-c2cc(=O)c3c(O)cc(O)cc3o2)cc1 | 12.2 min |
| COc1cc(C=CC(=O)O)ccc1O | 7.04 min |
| COc1ccc(-c2oc3cc(O)cc(O)c3c(=O)c2O)cc1 | 11.8 min |
| O=C1CC(c2ccc(O)cc2)Oc2cc(O)cc(O)c21 (stereo unspecified) | 9.44 min |
| O=c1c(O)c(-c2ccc(O)c(O)c2)oc2cc(O)cc(O)c12 | 8.24 min |
| O=c1c(O)c(-c2ccccc2)oc2cc(O)cc(O)c12 | 11.8 min |
| O=C(O)c1cc(O)ccc1O | 5.48 min |
| O=c1c(-c2ccc(O)cc2)coc2cc(O)cc(O)c12 | 9.53 min |
| O=c1c(O)c(-c2ccc(O)cc2)oc2cc(O)cc(O)c12 | 9.7 min |
| O=C(O)C=Cc1ccc(O)cc1 | 6.68 min |
| O=c1ccc2cc(OC3OC(CO)C(O)C(O)C3O)c(O)cc2o1 (stereo unspecified) | 4.91 min |
